Measurements from article PMC11876601 (Molecular Systems Biology, 2025).
Where “and” joins values, the source holds several entries; their conditions need not be identical. Equal values may be shown once.

Tested on: AsPC-1 cells
Assay: Cell proliferation assay, chemodrug + ATR inhibitor (Incucyte confluence, 72 h);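 also: underlying read-out for every value is AsPC-1 confluence after 72 h incubation at 37 °C and 5% CO2, divided by that well's starting confluence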
Settings: for Curve slope / Curve bottom / Curve top: AsPC1, fitted dose-response curve; for Curve bottom / Curve top: relative response; for AsPC-1 viability (ratio) / AsPC-1 viability mean (ratio) / Raw data (confluence at 72 h/confluence at 0 h): Gartisertib experiment
[1] = Experiment ATRi (ATR inhibitor alone)
[2] = replicate R1, titrated drug dose 3 nM
[3] = replicate R1, titrated drug dose 10 nM
[4] = replicate R1, titrated drug dose 30 nM
[5] = replicate R1, titrated drug dose 100 nM
[6] = replicate R1, titrated drug dose 300 nM
[7] = replicate R1, titrated drug dose 1000 nM
[8] = replicate R1, titrated drug dose 3000 nM
[9] = replicate R1, titrated drug dose 10000 nM
[10] = replicate R2, titrated drug dose 3 nM
[11] = replicate R2, titrated drug dose 10 nM
[12] = replicate R2, titrated drug dose 30 nM
[13] = replicate R2, titrated drug dose 100 nM

Procedure: Cells were seeded at 5000 cells/well into 96-well flat bottom plates (Eppendorf) and allowed to attach overnight. […] Cells were incubated for 72 h at 37 °C and 5% CO2. Cell confluence readouts at 72 h were either normalized to their initial confluence using the Incucyte software (AsPC-1) or used without prior normalization (all others). […] Each experiment was performed in triplicates, the data was plotted as mean ± standard deviation (s.d.).

Nc1nn2cc(F)cnc2c1C(=O)Nc1cncc(F)c1N1CCC(C(=O)N2CCN(C3COC3)CC2)CC1 [Gartisertib]
Curve slope [1]: 1.84 and 2.11 and 1.85 | Curve bottom [1]: 0.97 and 0.99 and 1.02 | Curve top [1]: 0.32 and 0.29 and 0.28 | Curve slope (Experiment GEM+ATRi_dose1): 1.70 and 3.25 and 2.63 | Curve bottom (Experiment GEM+ATRi_dose1): 0.97 and 0.89 and 0.93 | Curve top (Experiment GEM+ATRi_dose1): 0.47 and 0.39 | Curve slope (Experiment GEM+ATRi_dose2): 1.86 and 2.66 and 1.99 | Curve bottom (Experiment GEM+ATRi_dose2): 1.01 and 0.93 and 0.97 | Curve top (Experiment GEM+ATRi_dose2): 0.45 and 0.36 | Curve bottom (Experiment GEM+ATRi_dose3): 0.93 and 0.90 and 0.88 | Curve top (Experiment GEM+ATRi_dose3): 0.47 and 0.36 | Response (GEM 0 nM, ATRi 3 nM): 2.96 and 3.43 and 3.57 | Response (GEM 0 nM, ATRi 10 nM): 3.28 and 3.77 and 3.92 | Response (GEM 0 nM, ATRi 30 nM): 3.05 and 3.68 | Response (GEM 1 nM + ATRi 3 nM): 3.14 and 3.82 and 3.86 | Response (GEM 1 nM + ATRi 10 nM): 3.23 and 3.93 and 3.90 | Response (GEM 1 nM + ATRi 30 nM): 2.84 and 3.74 | Response (GEM 3 nM + ATRi 3 nM): 3.14 and 3.83 and 3.74 | Response (GEM 3 nM + ATRi 10 nM): 3.01 and 3.70 and 3.66 | Response (GEM 3 nM + ATRi 30 nM): 3.03 and 3.39 | Response (GEM 10 nM + ATRi 3 nM): 2.77 and 3.58 and 3.45 | Response (GEM 10 nM + ATRi 10 nM): 2.54 and 2.78 and 2.71 | Response (GEM 10 nM + ATRi 30 nM): 1.88 and 1.90 and 1.98 | Response (GEM 30 nM + ATRi 3 nM): 2.10 and 2.28 and 2.14 | Response (GEM 30 nM + ATRi 10 nM): 1.63 and 1.61 and 1.64 | Response (GEM 30 nM + ATRi 30 nM): 1.75 and 1.65 and 1.57 | Response (GEM 100 nM + ATRi 3 nM): 1.68 and 1.66 and 1.64 | Response (GEM 100 nM + ATRi 10 nM): 1.57 and 1.53 and 1.56 | Response (GEM 100 nM + ATRi 30 nM): 1.53 and 1.59 and 1.47 | Response (GEM 300 nM + ATRi 3 nM): 1.57 and 1.60 and 1.54 | Response (GEM 300 nM + ATRi 10 nM): 1.52 and 1.50 | Response (GEM 300 nM + ATRi 30 nM): 1.48 and 1.44 and 1.43 | Response (GEM 1000 nM + ATRi 3 nM): 1.57 and 1.62 | Response (GEM 1000 nM + ATRi 10 nM): 1.40 and 1.55 and 1.43 | Response (GEM 1000 nM + ATRi 30 nM): 1.36 and 1.45 and 1.40 | Response (GEM 3000 nM + ATRi 3 nM): 1.36 and 1.58 and 1.49 | Response (GEM 3000 nM + ATRi 10 nM): 1.38 and 1.44 and 1.37 | Response (GEM 3000 nM + ATRi 30 nM): 1.32 and 1.42 and 1.36 | AsPC-1 viability (ratio) [2]: 0.9 ratio | AsPC-1 viability mean (ratio) [2]: 0.59 ratio | Raw data (confluence at 72 h/confluence at 0 h) [2]: 2.89 | AsPC-1 viability (ratio) [3]: 1.01 ratio | AsPC-1 viability mean (ratio) [3]: 0.99 ratio | Raw data (confluence at 72 h/confluence at 0 h) [3]: 3.24 | AsPC-1 viability (ratio) [4]: 0.95 ratio | AsPC-1 viability mean (ratio) [4]: 0.48 ratio | Raw data (confluence at 72 h/confluence at 0 h) [4]: 3.04 | AsPC-1 viability (ratio) [5]: 0.63 ratio | AsPC-1 viability mean (ratio) [5]: 0.45 ratio | Raw data (confluence at 72 h/confluence at 0 h) [5]: 2.03 | AsPC-1 viability (ratio) [6]: 0.44 ratio | AsPC-1 viability mean (ratio) [6]: 0.4 ratio | Raw data (confluence at 72 h/confluence at 0 h) [6]: 1.4 | AsPC-1 viability (ratio) [7]: 0.37 ratio | AsPC-1 viability mean (ratio) [7]: 0.54 ratio | Raw data (confluence at 72 h/confluence at 0 h) [7]: 1.19 | AsPC-1 viability (ratio) [8]: 0.33 ratio | AsPC-1 viability mean (ratio) [8]: 0.49 ratio | Raw data (confluence at 72 h/confluence at 0 h) [8]: 1.04 | AsPC-1 viability (ratio) [9]: 0.27 ratio | AsPC-1 viability mean (ratio) [9]: 0.45 ratio | Raw data (confluence at 72 h/confluence at 0 h) [9]: 0.87 | AsPC-1 viability (ratio) [10]: 1.01 ratio | AsPC-1 viability mean (ratio) [10]: 0.6 ratio | Raw data (confluence at 72 h/confluence at 0 h) [10]: 4.15 | AsPC-1 viability (ratio) [11]: 1 ratio | AsPC-1 viability mean (ratio) [11]: 1.08 ratio | Raw data (confluence at 72 h/confluence at 0 h) [11]: 4.13 | AsPC-1 viability (ratio) [12]: 0.94 ratio | AsPC-1 viability mean (ratio) [12]: 0.49 ratio | Raw data (confluence at 72 h/confluence at 0 h) [12]: 3.88 | AsPC-1 viability (ratio) [13]: 0.73 ratio | AsPC-1 viability mean (ratio) [13]: 0.44 ratio
